The values that follow come from patent US4686283A, “Analogs of transforming and epidermal growth factor fragments for therapy and diagnosis” (Syntex (U.S.A.) Inc., priority 1985, dated 1987).

Test [1] deals with LE II cells. Put plainly: Inhibition of TGFα-induced cell proliferation ([3H]-methylthymidine incorporation). Type of test: cell-based, Murine. The note with it: induced by 2 × 10^-9 M TGFα; for % of thymidine incorporation: control 420 ± 30. The method, then: (§1) LE II cells were grown to confluence in 48 well cluster dishes and starved for two days in DMEM containing 0.5% fetal calf serum.
(§2) The percent enhancement of thymidine incorporation was used as the measure of cell proliferation. The lower the percentage of thymidine incorporation, the lower the rate of cell proliferation. Inhibition of EGF-induced cell proliferation by the foregoing compounds is reflected in Table II. Table III gives the inhibition of TGFα-induced cell proliferation.

The target in a further test is T1, EGF receptors (Mus musculus, UniProt Q01279).
T1 construct: endogenous in cells; host or cells: LE II murine lung endothelial cells
Put plainly: Competitive antagonism of 125I-EGF binding to LE II cells (Scatchard plots). The following applies: in the presence of 20 μg/ml peptide, 4° C.; for apparent association constant for EGF: lower = more effective competitor. Also noted: species or system Murine. As for the experimental part:
Murine lung endothelial cells identified as LE II were grown to confluence in 24 well cluster dishes in Dulbecco's minimal essential medium (DMEM) containing 10% fetal calf serum. Cells were washed twice with DMEM containing 1% bovine serum albumin and buffered at pH 7.4 with 50 mM Hepes buffer (DMEM-BSA). […] At the end of the incubation period, cells were washed three times with DMEM-BSA, lysed in 0.1N sodium hydroxide and cell-associated radioactivity was determined in a gamma counter.

Test [2] concerns LE II cells. Put plainly: Inhibition of EGF-induced cell proliferation ([3H]-methylthymidine incorporation). Type of test: cell-based, Murine. The following applies: induced by 2 × 10^-9 M EGF; for % Enhancement of thymidine incorporation: control 380 ± 20. The method, then: as §1, §2
Test [3] has as its system rabbit anti-TGF α-KLH IgG. Put plainly: Competitive radioimmunoassay: iodinated rabbit anti-TGF α-KLH IgG preincubated with inhibitor, then bound to BSA-peptide complex coated wells. Type of test: binding. The following applies: no inhibitor 8400 ± 600 cpm. The method, then:
A. Rabbit IgG antibodies to the compound [drawing 24] (anti-TGF α-KLH), as prepared in accordance with Example 7, were iodinated by the chloramine-T method. To 1 mg anti-TGF α-KLH antibody in 0.2M phosphate buffer (pH 7.6) was added 20 μl of a 2 mg/ml solution of chloramine-T and 1mCiNa^125 I for 3 minutes at room temperature. 1 mg KI was added and excess free iodine removed by chromatography on a Sephadex G-50 column. The specific activity of the antibodies varied between 200,000 and 400,000 counts per minute (cpm)/μg protein. Flexible polyvinylchloride plates were coated with a 1 mg/ml solution of BSA-peptide complex (prepared in accordance with Example 6A) in phosphate buffered saline (PBS) for 16 hours at 4° C. Plates were countered with a solution containing BSA and 1% Bovine gamma globulin.
These solutions were then added to the coated wells for an additional 2 hours at 37° C. After several washes with PBS containing 0.1% BSA, individual wells were cut apart and counted in a gamma counter.

Where a SMILES comes first, the peptide text is derived from it. Bridges are numbered along the chain shown (N, C = ends).

Turning to `CC(C)[C@@H]1NC(=O)CNC(=O)[C@H](C(C)C)NC(=O)[C@H](Cc2ccc(O)cc2)NC(=O)CNC(=O)[C@H](CO)NC(=O)[C@H](Cc2c[nH]cn2)NC(=O)[C@@H](N)CSSC[C@@H](C(=O)O)NC(=O)[C@H](CCCNC(=N)N)NC1=O` [Peptide 1] (H-CHSGYVGVRC-OH; disulfide 1-10), the entries for the “% of thymidine incorporation, second figure relative to control = 100” value with LE II cells [1] (peptide 10^-5 M), with LE II cells [1] (peptide 10^-6 M) and in the test on LE II cells [1] (peptide 10^-7 M) were 79%, 95% and 95%, respectively. Also, the “% of thymidine incorporation” value with LE II cells [1] (peptide 10^-5 M) came out at 330 ± 10%; in the test with LE II cells [1] (peptide 10^-6 M) it was 400 ± 20%; in the test on LE II cells [1] (peptide 10^-7 M), 400 ± 20%. In addition, the “apparent association constant for EGF” value at EGF receptors was 1.5e+10 M⁻¹. Besides, the “% Enhancement of thymidine incorporation, second figure relative to control = 100 (ratio of TGF α fragment/EGF counts per minute)” value with LE II cells [2] (peptide 10^-5 M) was 70%; in the test with LE II cells [2] (peptide 10^-6 M) it was 95%; in the test on LE II cells [2] (peptide 10^-7 M), 103%. The “% Enhancement of thymidine incorporation” value amounted to 265 ± 15% in the test on LE II cells [2] (peptide 10^-5 M) and 360 ± 20% in the test with LE II cells [2] (peptide 10^-6 M).
Regarding `CC(C)[C@@H]1NC(=O)[C@H](Cc2ccc(O)cc2)NC(=O)CNC(=O)[C@H](CO)NC(=O)[C@H](Cc2c[nH]cn2)NC(=O)[C@@H](N)CSSC[C@@H](C(=O)O)NC(=O)[C@H](CCCNC(=N)N)NC(=O)[C@H](C)NC(=O)CNC1=O` [Peptide 2] (H-CHSGYVGARC-OH; disulfide 1-10), on EGF receptors, the “apparent association constant for EGF” value came out at 1.5e+10 M⁻¹. Further, the “% Enhancement of thymidine incorporation, second figure relative to control = 100 (ratio of TGF α fragment/EGF counts per minute)” value with LE II cells [2] (peptide 10^-5 M) is 64%; with LE II cells [2] (peptide 10^-6 M), 97%; in the test with LE II cells [2] (peptide 10^-7 M) it was 100%. Besides, the results for the “% Enhancement of thymidine incorporation” value in the test on LE II cells [2] (peptide 10^-5 M), in the test on LE II cells [2] (peptide 10^-6 M) and in the test on LE II cells [2] (peptide 10^-7 M) were 245 ± 25%, 370 ± 15% and 380 ± 20%, respectively.
Turning to EGF: epidermal growth factor, the “cpm of iodinated anti-TGF α-KLH IgG bound to coated wells” value in test [3] (inhibitor 10 ng/ml) is given as 8800 ± 400 cpm; in test [3] (inhibitor 100 ng/ml) it was 8200 ± 500 cpm; in test [3] (inhibitor 1000 ng/ml), 7600 ± 800 cpm; in test [3] (inhibitor 10,000 ng/ml), 7800 ± 600 cpm.
“H-Cys-His-Ser-Gly-Tyr-Val-Gly-Val-Arg-Cys-OH (H-CHSGYVGVRC-OH; disulfide 1-10 (inferred)) [TGFα fragment peptide]”: the “extrapolated saturation binding of 125I-EGF” value with EGF receptors (one hour, 0.51±0.03 nM in its absence) was 0.5 ± 0.02 nM.
As for “TGFα: native human transforming growth factor alpha, used as inhibitor in the radioimmunoassay”, the “cpm of iodinated anti-TGF α-KLH IgG bound to coated wells” value in test [3] (inhibitor 1 ng/ml) was determined as 8600 ± 800 cpm; in test [3] (inhibitor 10 ng/ml), 7600 ± 400 cpm; in test [3] (inhibitor 100 ng/ml), 5100 ± 700 cpm; in test [3] (inhibitor 1000 ng/ml) it was 3800 ± 400 cpm.
